This assay deals with SARM1 (ARM-SAM-TIR) (Homo sapiens (Human), UniProt Q6SZW1). In words: ARM-SAM-TIR SARM1 IC50 assay (NADase activity, NAD+ cleavage, RapidFire MS). Format: biochemical. The note with it: ARM-SAM-TIR lysate 5 μg/mL, 2 h pre-incubation, 5 μM NAD+, 2 hr room temperature. The method, then:
This Example describes an assay of ARM-SAM-TIR NADase activity and use of this assay to measure the efficacy of compounds of Formula I or Formula I′ to block SARM1 mediated NAD+ cleavage. This assay was optimized in such a way as to characterize the efficacy of the compounds in Formula I or Formula I′ to inhibit SARM1 activity and to calculate an IC50 value for each compound. This assay makes use of full length SARM1, which encompasses the ARM, SAM and TIR domains.
NRK1-HEK293T cells were seeded onto 150 cm^2 plates at 20×10^6 cells per plate. The next day, the cells were transfected with 15 μg ARM-SAM-TIR expression plasmid, SEQ ID NO: 1.
The cultures were supplemented with 1 mM NR at time of transfection to minimize toxicity from ARM-SAM-TIR overexpression. Forty-eight hours after transfection, cells were harvested, pelleted by centrifugation at 1,000 rpm (Sorvall ST 16R centrifuge, Thermo Fisher), and washed once with cold PBS (0.01 M phosphate buffered saline NaCl 0.138 M; KCl 0.0027 M; pH 7.4). The cells were resuspended in PBS with protease inhibitors (cOmplete™ protease inhibitor cocktail, Roche product #11873580001) and cell lysates were prepared by sonication (Branson Sonifer 450, output=3, 20 episodes of stroke). The lysates were centrifuged (12,000×g for 10 min at 4° C.) to remove cell debris and the supernatants (containing ARM-SAM-TIR protein) were stored at −80° C. for later use in the in vitro ARM-SAM-TIR NADase assay (see below). Protein concentration was determined by the Bicinchoninic (BCA) method and used to normalize lysate concentrations.
The enzymatic assay was performed in a 384-well polypropylene plate in Dulbecco's PBS buffer in a final assay volume of 20 μL. ARM-SAM-TIR lysate with a final concentration of 5 μg/mL was pre-incubated with the respective compound at 1% DMSO final assay concentration over 2 h at room temperature. The reaction was initiated by addition of 5 μM final assay concentration of NAD+ as substrate. After a 2 hr room temperature incubation, the reaction was terminated with 40 μL of stop solution of 7.5% trichloroactetic acid in acetonitrile. The NAD+ and ADPR concentrations were analyzed by a RapidFire High Throughput Mass Spectrometry System (Agilent Technologies, Santa Clara, Calif.) using an API4000 triple quadrupole mass spectrometer (AB Sciex Framingham, Mass.).
Sequence of SARM1 (ARM-SAM-TIR) (Q6SZW1 other isoform, or with tags, fused parts or gaps): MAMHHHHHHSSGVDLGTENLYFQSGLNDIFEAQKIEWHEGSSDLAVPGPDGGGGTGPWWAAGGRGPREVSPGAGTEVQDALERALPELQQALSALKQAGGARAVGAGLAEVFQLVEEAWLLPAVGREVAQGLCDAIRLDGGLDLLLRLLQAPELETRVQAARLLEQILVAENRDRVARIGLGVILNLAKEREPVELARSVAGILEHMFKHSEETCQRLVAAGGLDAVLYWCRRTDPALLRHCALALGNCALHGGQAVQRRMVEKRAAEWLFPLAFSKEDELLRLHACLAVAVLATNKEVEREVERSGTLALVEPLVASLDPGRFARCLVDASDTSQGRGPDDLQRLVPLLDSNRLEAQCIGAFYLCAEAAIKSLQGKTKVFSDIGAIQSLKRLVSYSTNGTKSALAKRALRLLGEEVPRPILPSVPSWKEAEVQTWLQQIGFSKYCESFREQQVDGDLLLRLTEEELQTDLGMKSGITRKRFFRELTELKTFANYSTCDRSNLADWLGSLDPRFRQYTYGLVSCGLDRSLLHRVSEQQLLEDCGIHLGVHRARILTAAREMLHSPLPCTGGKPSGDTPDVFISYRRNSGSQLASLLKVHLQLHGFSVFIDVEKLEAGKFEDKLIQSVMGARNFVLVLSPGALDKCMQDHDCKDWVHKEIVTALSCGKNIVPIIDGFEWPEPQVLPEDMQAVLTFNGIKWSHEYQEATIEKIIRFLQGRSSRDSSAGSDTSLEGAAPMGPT
`CC(C)(C)OC(=O)N(CC(=O)Nc1nnc(-c2ccncc2)[nH]1)c1ccccc1` [Example 70]: the half-maximal inhibitory concentration (IC50) was above 30 µM.
The molecule `O=C(C[C@@H]1CCOc2ccccc21)Nc1nnc(-c2ccncc2)[nH]1` [Example 71] registered an IC50 below 5 µM.
Consider `O=C(C[C@H]1CCOc2ccccc21)Nc1nnc(-c2ccncc2)[nH]1` [Example 72], for which the IC50 was below 5 µM.
`O=C(CC1COCc2ccccc21)Nc1nnc(-c2ccncc2)[nH]1` (stereo not shown) [Example 73] showed a 50% inhibitory concentration (IC50) of 5 to 15 µM.
In the case of `O=C(CCc1ccc(O)cc1)Nc1nnc(-c2ccncc2)[nH]1` [Example 74] it was above 30 µM.
`O=C(CCc1ccc(OC(F)F)cc1)Nc1nnc(-c2ccncc2)[nH]1` [Example 75] showed an IC50 below 5 µM.
Molecule `O=C(CN1CCCc2ccccc21)Nc1nnc(-c2ccncc2)[nH]1` [Example 76] displayed an IC50 above 30 µM.
Turning to `NS(=O)(=O)c1ccc(CCC(=O)Nc2nnc(-c3ccncc3)[nH]2)cc1` [Example 77], the IC50 was 15 to 30 µM.
Take `CC(C)(C)c1ccc(CCC(=O)Nc2nnc(-c3ccncc3)[nH]2)cc1` [Example 78]: the half-inhibitory concentration (IC50) was 5 to 15 µM.
`N#Cc1ccc(CC(=O)Nc2nnc(-c3ccncc3)[nH]2)cc1` [Example 79] displayed an IC50 of 5 to 15 µM.
`O=C(CN1C(=O)COc2ccccc21)Nc1nnc(-c2ccncc2)[nH]1` [Example 80] returned an IC50 of 15 to 30 µM.
Consider `O=C(CCc1ccc(Cl)s1)Nc1nnc(-c2ccncc2)[nH]1` [Example 81], for which the IC50 was below 5 µM.
`N[C@H](Cc1ccc(Cl)cc1)C(=O)Nc1nnc(-c2ccncc2)[nH]1` [Example 82] displayed a half-maximal inhibitory concentration (IC50) below 5 µM.
In turn, `Cc1ccc(CCC(=O)Nc2nnc(-c3ccncc3)[nH]2)cn1` [Example 83] showed a 50% inhibitory concentration (IC50) of 5 to 15 µM.
For `O=C(CCc1ccc(Cl)nc1)Nc1nnc(-c2ccncc2)[nH]1` [Example 84], the 50% inhibitory concentration (IC50) is below 5 µM.
`O=C(CCc1ccc(C(F)(F)F)cn1)Nc1nnc(-c2ccncc2)[nH]1` [Example 85]: the concentration for half-maximal inhibition (IC50) lay in the range of 5 to 15 µM.
As for `O=C(CCc1ccc(C(F)(F)F)nc1)Nc1nnc(-c2ccncc2)[nH]1` [Example 86], the IC50 is below 5 µM.
As to `O=C(CCc1cnc(C(F)(F)F)nc1)Nc1nnc(-c2ccncc2)[nH]1` [Example 87], the half-inhibitory concentration (IC50) was below 5 µM.
For the molecule `O=C(Nc1nnc(-c2ccncc2)[nH]1)[C@H]1CCc2ccccc2C1` [Example 88], the IC50 is below 5 µM.
In the case of `O=C(Nc1nnc(-c2ccncc2)[nH]1)[C@@H]1CCc2ccccc2C1` [Example 89] it was 5 to 15 µM.
As for `O=C(C[C@H]1CCCc2ccccc21)Nc1nnc(-c2ccncc2)[nH]1` [Example 90], the IC50 is below 5 µM.
`O=C(C[C@@H]1CCCc2ccccc21)Nc1nnc(-c2ccncc2)[nH]1` [Example 91] returned an IC50 below 5 µM.
In the case of `O=C(NCc1ccc(Cl)cc1)Nc1nnc(-c2ccncc2)[nH]1` [Example 92] it was below 5 µM.
`C[C@@H](CC(=O)Nc1nnc(-c2ccncc2)[nH]1)c1ccccc1` [Example 93] gave an IC50 of 15 to 30 µM.
The molecule `C[C@H](CC(=O)Nc1nnc(-c2ccncc2)[nH]1)c1ccccc1` [Example 94] had an IC50 of 15 to 30 µM.
For `CC(Cc1ccccc1)C(=O)Nc1nnc(-c2ccncc2)[nH]1` (stereo not shown) [Example 95], the IC50 was 5 to 15 µM.
Next, `CC(C)(Cc1ccccc1)C(=O)Nc1nnc(-c2ccncc2)[nH]1` [Example 96]: 5 to 15 µM; `O=C(CCc1ccc(C(F)F)cc1)Nc1nnc(-c2ccncc2)[nH]1` [Example 97]: below 5 µM; `CN(C(=O)CCc1ccccc1)c1nnc(-c2ccncc2)[nH]1` [Example 98]: 5 to 15 µM.
`O=C(CCc1ccc(Cl)cc1)Nc1ncc(-c2ccncc2)s1` [Example 99]: the IC50 was in the range of 5 to 15 µM.
`O=C(CCc1ccc(Cl)cc1)Nc1nnc(-c2ccncc2)o1` [Example 100] registered an IC50 above 30 µM.
Take `O=C(CCc1ccc(Cl)c(Cl)c1)Nc1nnc(-c2ccncc2)[nH]1` [Example 101]: the IC50 is below 5 µM.
In the case of `O=C(COc1ccc(Cl)cc1)Nc1nnc(-c2ccncc2)[nH]1` [Example 102] it was 5 to 15 µM; in that of `O=C(Nc1nnc(-c2ccncc2)[nH]1)[C@@H]1C[C@@H]1c1ccccc1` [Example 103], 15 to 30 µM; in that of `O=C(Nc1nnc(-c2ccncc2)[nH]1)[C@@H]1C[C@H]1c1ccccc1` [Example 104], 5 to 15 µM.
In the case of `O=C(CCc1ccc(Br)cc1)Nc1nnc(-c2ccncc2)[nH]1` [Example 105], the 50% inhibitory concentration (IC50) is below 5 µM.
Next, `O=C(CCc1ccc(Cl)cn1)Nc1nnc(-c2ccncc2)[nH]1` [Example 106]: below 5 µM.
Molecule `COc1ccccc1CCC(=O)Nc1nnc(-c2ccncc2)[nH]1` [Example 107] registered an IC50 below 5 µM.
Next, `COc1cccc(CCC(=O)Nc2nnc(-c3ccncc3)[nH]2)c1` [Example 108]: 5 to 15 µM; `O=C(CC1CCOc2ccccc21)Nc1nnc(-c2ccncc2)[nH]1` (stereo not shown) [Example 109]: below 5 µM; `Cn1nc(-c2ccncc2)nc1NC(=O)CCc1ccccc1` [Example 110]: above 30 µM.
In turn, `Cn1nc(NC(=O)CCc2ccccc2)nc1-c1ccncc1` [Example 111] registered a half-inhibitory concentration (IC50) above 30 µM.
`O=C(CCc1ccncc1)Nc1nnc(-c2ccncc2)[nH]1` [Example 112] gave an IC50 of 15 to 30 µM.
As to `O=C(CCc1ccc(F)cc1Cl)Nc1nnc(-c2ccncc2)[nH]1` [Example 113], the IC50 was below 5 µM.
`O=C(CCc1ccc(Cl)cc1)Nc1cc(-c2ccncc2)[nH]n1` [Example 114]: the 50% inhibitory concentration (IC50) was below 5 µM.
The molecule `O=C(CCc1ccc(Cl)cc1)Nc1nnc(-c2ccncc2)s1` [Example 115] displayed an IC50 above 30 µM.
`O=C(Nc1nnc(-c2ccncc2)[nH]1)C1Cc2ccccc2C1` [Example 116]: the half-inhibitory concentration (IC50) fell in the range of 5 to 15 µM.
For the molecule `O=C(CC1CCc2ccccc21)Nc1nnc(-c2ccncc2)[nH]1` (stereo not shown) [Example 117], the IC50 was below 5 µM.
The molecule `O=C(CCc1c(F)c(F)c(F)c(F)c1F)Nc1nnc(-c2ccncc2)[nH]1` [Example 118] displayed an IC50 below 5 µM.
`N#Cc1ccc(CCC(=O)Nc2nnc(-c3ccncc3)[nH]2)cc1` [Example 119] gave a concentration for half-maximal inhibition (IC50) below 5 µM.
Molecule `O=C(CCc1ccc(OC(F)(F)F)cc1)Nc1nnc(-c2ccncc2)[nH]1` [Example 120] showed a half-inhibitory concentration (IC50) below 5 µM.
In turn, `CC(C)(CC(=O)Nc1nnc(-c2ccncc2)[nH]1)c1ccccc1` [Example 121] showed an IC50 of 15 to 30 µM.
With `Cn1c(CCC(=O)Nc2nnc(-c3ccncc3)[nH]2)nc2ccccc21` [Example 122], the concentration for half-maximal inhibition (IC50) lay within 15 to 30 µM.
For `O=C(CCc1cn2ccccc2n1)Nc1nnc(-c2ccncc2)[nH]1` [Example 123], the IC50 is 15 to 30 µM.
As for `O=C(CCc1ccc(C(F)(F)F)cc1)Nc1nnc(-c2ccncc2)[nH]1` [Example 124], the IC50 is below 5 µM.
`O=C(CCc1ccc(F)cc1)Nc1nnc(-c2ccncc2)[nH]1` [Example 125]: the IC50 was below 5 µM.
On to `CS(=O)(=O)c1ccc(CCC(=O)Nc2nnc(-c3ccncc3)[nH]2)cc1` [Example 126], for which the IC50 lay within 15 to 30 µM.
The molecule `COc1ccc(CCC(=O)Nc2nnc(-c3ccncc3)[nH]2)cc1` [Example 127] showed a half-inhibitory concentration (IC50) below 5 µM.
In the case of `Cn1ccnc1CCC(=O)Nc1nnc(-c2ccncc2)[nH]1` [Example 128] it was above 30 µM; in that of `Cc1ccc(CCC(=O)Nc2nnc(-c3ccncc3)[nH]2)c(C)c1` [Example 129], below 5 µM.
Regarding `O=C(CCc1ccc2ccccc2c1)Nc1nnc(-c2ccncc2)[nH]1` [Example 130], the half-inhibitory concentration (IC50) is above 30 µM.
Regarding `O=C(Nc1nnc(-c2ccncc2)[nH]1)C1CCc2ccccc2C1` (stereo not shown) [Example 131], the 50% inhibitory concentration (IC50) was below 5 µM.
In turn, `O=C(CC1CCCc2ccccc21)Nc1nnc(-c2ccncc2)[nH]1` (stereo not shown) [Example 132] had an IC50 below 5 µM.
In the case of `Cn1cc(CCC(=O)Nc2nnc(-c3ccncc3)[nH]2)cn1` [Example 133], the IC50 was above 30 µM.
The molecule `O=C(CCC1CCCCC1)Nc1nnc(-c2ccncc2)[nH]1` [Example 134] showed a half-inhibitory concentration (IC50) of 5 to 15 µM.
`O=C(Nc1nc(-c2ccncc2)n[nH]1)c1ccccc1` [Example 135] yielded an IC50 of 5 to 15 µM.
For `O=C(CCc1ccc(Cl)cc1)Nc1nnc(-c2ccncc2)[nH]1` [Example 136], the concentration for half-maximal inhibition (IC50) is below 5 µM.
In turn, `O=C(CCc1cccc(Cl)c1)Nc1nnc(-c2ccncc2)[nH]1` [Example 137] gave an IC50 below 5 µM.
Molecule `O=C(CCc1ccccc1Cl)Nc1nnc(-c2ccncc2)[nH]1` [Example 138] returned a concentration for half-maximal inhibition (IC50) below 5 µM.
On to `Cc1ccc(CCC(=O)Nc2nnc(-c3ccncc3)[nH]2)cc1` [Example 139], for which the concentration for half-maximal inhibition (IC50) is below 5 µM.

Usually IC50 stands for the concentration at which inhibition is half-maximal.

For the origin of these results see patent publication US12331033B2, “Inhibitors of SARM1” (Disarm Therapeutics, Inc., priority 2020, dated 2025).
